Source: ChEMBL document CHEMBL1212699, “Chemical approaches to understanding O-GlcNAc glycosylation in the brain” (Nat Chem Biol, 2008)

Test: Inhibition of beta-N-acetylglucosaminidase

Ki: 4.6 pM
Structure (SMILES): CC(C)C(=O)N[C@H]1c2nc(CCc3ccccc3)cn2[C@H](CO)[C@@H](O)[C@@H]1O
